Experimental data: patent US10359701B2, “Material for forming underlayer film for lithography, composition for forming underlayer film for lithography, underlayer film for lithography and pattern forming method” (Mitsubishi Gas Chemical Company, Inc., priority 2015, dated 2019)

Tests used:
[1] = Solubility: amount of compound dissolved in PGMEA at 23° C.
Experimental: The amount of the compound dissolved in propylene glycol monomethyl ether acetate (PGMEA) was measured at 23° C., and the results were evaluated according to the following criteria.
Evaluation A: 10% by mass or more
Evaluation B: less than 10% by mass

[2] = Thermogravimetric measurement (TG) of the synthesized compound; assay type: physicochemical

Row | SMILES | solubility in PGMEA [1] [% by mass] | solubility in PGMEA (Evaluation) [1] | 20% thermal weight loss temperature [2] [°C]
1 | N#COc1ccc(C(c2ccccc2)c2ccc(OC#N)cc2)cc1 [B-CN, bis(4-cyanatophenyl)phenylmethane] | ≥ 10 | A (10% by mass or more) | ≥ 400
2 | N#COc1ccc(-c2ccc(OC#N)c(C(c3ccc(-c4ccccc4)cc3)c3cc(-c4ccc(OC#N)cc4)ccc3OC#N)c2)cc1 [BiF-CN, bis(4,4′-cyanatobiphenyl) biphenylmethane] | ≥ 10 | A (10% by mass or more) | ≥ 400
